Measured values: patent US20260308149A1, “NOVEL CARBOXAMIDE DERIVATIVES” (ANGELINI PHARMA S.P.A., priority 2023, published 2026)
pEC50: −log10 of the molar value.

Experiments:
[1] = test system: spreading depression; conditions: Aiba and Noebels, 2021; cited from earlier work
[2] = test system: patients; conditions: MDD patients; Tan et al., 2018; cited from earlier work
[3] = test system: pain models; conditions: Korsgaard et al., 2005; Xu et al., 2010; Wu et al., 2017; cited from earlier work
[4] = test system: peripheral neuropathy; conditions: preclinical; Nodera et al., 2011; cited from earlier work
[5] = test system: ALS patients; conditions: clinical trials in ALS; Wainger et al., 2021; cited from earlier work
[6] = test system: Patient-derived motor neurons; conditions: ALS patient-derived motor neurons; Wainger et al., 2014; cited from earlier work
[7] = test system: preclinical models of tinnitus; conditions: Li, Choi and Tzounopoulos, 2013; cited from earlier work
[8] = test system: Dup15q patient-derived induced pluripotent cells; conditions: Fink et al., 2018; cited from earlier work
[9] = target: T1, human Kv7.2 (Homo sapiens, UniProt O43526); test: activation (potentiation) of Kv7.2 current, SyncroPatch 384 electrophysiology in CHO cells stably expressing human Kv7.2; type: cell-based; conditions: human Kv7.2 in CHO cells; in presence of 5.6 μM zinc pyrithione; % activation relative to 30 μM ML-213
T1 construct: expressed in transfected cells
T1 sequence (O43526 whole entry): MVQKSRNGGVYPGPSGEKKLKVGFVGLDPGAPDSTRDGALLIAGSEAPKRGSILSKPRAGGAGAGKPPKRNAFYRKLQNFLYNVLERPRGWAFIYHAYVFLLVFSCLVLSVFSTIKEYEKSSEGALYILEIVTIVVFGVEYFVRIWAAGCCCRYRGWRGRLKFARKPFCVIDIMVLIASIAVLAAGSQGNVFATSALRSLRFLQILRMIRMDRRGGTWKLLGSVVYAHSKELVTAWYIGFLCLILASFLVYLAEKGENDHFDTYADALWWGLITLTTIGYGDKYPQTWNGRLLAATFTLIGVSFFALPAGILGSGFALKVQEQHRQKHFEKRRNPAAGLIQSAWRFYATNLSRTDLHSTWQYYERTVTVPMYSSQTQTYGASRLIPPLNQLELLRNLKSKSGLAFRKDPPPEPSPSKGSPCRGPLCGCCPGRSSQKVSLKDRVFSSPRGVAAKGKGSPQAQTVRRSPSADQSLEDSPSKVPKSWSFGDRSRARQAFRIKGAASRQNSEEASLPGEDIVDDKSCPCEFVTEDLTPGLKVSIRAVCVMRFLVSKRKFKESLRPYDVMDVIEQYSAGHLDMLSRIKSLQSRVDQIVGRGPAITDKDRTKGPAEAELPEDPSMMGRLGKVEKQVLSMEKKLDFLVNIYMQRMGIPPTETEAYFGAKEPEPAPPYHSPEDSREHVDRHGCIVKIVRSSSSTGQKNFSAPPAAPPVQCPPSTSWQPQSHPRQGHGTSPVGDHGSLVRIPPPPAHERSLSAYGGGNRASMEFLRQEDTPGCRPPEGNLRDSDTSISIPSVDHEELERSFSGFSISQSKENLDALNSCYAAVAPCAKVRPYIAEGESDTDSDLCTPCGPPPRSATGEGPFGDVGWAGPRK
Procedure, shortened: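 CHO cells stably expressing human Kv7.2 were recorded by automated patch clamp, holding at −60 mV with steps to −30, 40 and −90 mV; current was read at the −90 mV step. Compounds were added after 5.6 μM zinc pyrithione pre-activation. % activation was normalised between 30 μM ML-213 (max) and TEA+XE-991 (leak), with EC50 from a logistic fit.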

| SMILES | pEC50 [9] | further results |
| --- | --- | --- |
| CCOC(=O)Nc1ccc(NCc2ccc(F)cc2)cc1N [Retigabine] |  | efficacy in controlling spreading depression [1]: shows efficacy in controlling spreading depression; antidepressant efficacy [2]: showed antidepressant efficacy in patients; reduction in depressive symptoms [2]: significant reduction in depressive symptoms; efficacy in preclinical pain models [3]: some efficacy in preclinical pain models; protection against peripheral neuropathy [4]: protects against peripheral neuropathy; efficacy on functional biomarkers of ALS [5]: showed efficacy on functional biomarkers of ALS; rescue of membrane hyperexcitability phenotype [6]: rescues the phenotype; prevention of the development of tinnitus [7]: prevents the development of tinnitus in preclinical models; effect on phenotype [8]: partially corrects their phenotype |
| COC(C)(CNC(=O)CCC1CCCC1)c1cccc(Cl)c1 (stereo not drawn) [Example 53, N-[2-(3-chlorophenyl)-2-methoxy-propyl]-3-cyclopentyl-propanamide] | 6.05 |  |
| O=C(NCC1(c2cccc(OC(F)F)n2)CCO1)[C@H]1C[C@@H]1C(F)(F)F (stereo partly drawn) [Example 130, (1S,2S)—N-[[2-[6-(difluoromethoxy)-2-pyridyl]oxetan-2-yl]methyl]-2-(trifluoromethyl)cyclopropanecarboxamide] | 6.17 |  |
| COC(C)(CNC(=O)NCC1CCCC1)c1cccc(Cl)c1 (stereo not drawn) [Example 21, 1-[2-(3-chlorophenyl)-2-methoxy-propyl]-3-(cyclopentylmethyl)urea] | 6.26 |  |
| O=C(NCC(CCO)c1cccc(Cl)c1)[C@H]1C[C@@H]1c1ccccc1 (stereo partly drawn) [Example 92, (1S,2S)—N-[2-(3-chlorophenyl)-4-hydroxy-butyl]-2-phenyl-cyclopropanecarboxamide] | 5.74 |  |
| O=C(NCC1(c2cccc(Cl)c2)CC1)NC1CCCC1 [Example 7, 1-[[1-(3-chlorophenyl)cyclopropyl]meth-yl]-3-cyclopentyl-urea] | 5.57 |  |
| O=C(CC1CCCCC1)NCC1(c2ccnc(OC(F)F)c2)CCO1 (stereo not drawn) [Example 117, 2-cyclohexyl-N-[[2-[2-(difluoromethoxy)-4-pyridyl]oxetan-2-yl]methyl]acetamide] | 5.36 |  |
| COC(CNC(=O)Cc1cccc2ccccc12)c1ccccc1Cl (stereo not drawn) [Example 36, N-[2-(2-chlorophenyl)-2-methoxy-ethyl]-2-(1-naphthyl)acetamide] | 5.80 |  |
| CO[C@@](C)(CNC(=O)C1CC12CCCCC2)c1cccc(Cl)c1 (stereo partly drawn) [Example 82, N-[(2R)-2-(3-chlorophenyl)-2-methoxy-propyl]spiro[2.5]octane-2-carboxamide] | 6.54 |  |
| COc1cccc(NC(=O)NC[C@](C)(OC)c2cccc(Cl)c2)c1 [Example 17, 1-[(2R)-2-(3-chlorophenyl)-2-methoxy-propyl]-3-(3-methoxyphenyl)urea] | 5.78 |  |
| N#Cc1cccc(C2(CNC(=O)CC3CCCCC3)OCC2(F)F)c1 (stereo not drawn) [Example 91, N-[[2-(3-cyanophenyl)-3,3-difluoro-oxetan-2-yl]methyl]-2-cyclohexyl-acetamide] | 5.95 |  |
| N#Cc1cccc([C@]2(CNC(=O)CC34CCC(CC3)C4)CCO2)c1 [Example 109, N-[[(2S)-2-(3-cyanophenyl)oxetan-2-yl]methyl]-2-norbornan-1-yl-acetamide] | 6.15 |  |
| O=C(NCC1(c2cccc(OC(F)F)n2)CCO1)C1CC12CCC(F)(F)CC2 (stereo not drawn) [Example 120, N-[[2-[6-(difluoromethoxy)-2-pyridyl]oxetan-2-yl]methyl]-6,6-difluoro-spiro[2.5]octane-2-carboxamide] | 6.59 |  |
| CO[C@@](C)(CNC(=O)[C@H]1C[C@@H]1c1ccccc1)c1cccc(Cl)c1 [Example 2, (1S,2S)-N-[(2R)-2-(3-chlorophenyl)-2-methoxy-propyl]-2-phenyl-cyclopropanecarboxamide] | 7.22 |  |
| O=C(CC1CCCCC1)NCC1(c2cccc(OC(F)F)n2)CCO1 (stereo not drawn) [Example 119, 2-cyclohexyl-N-[[2-[6-(difluoromethoxy)-2-pyridyl]oxetan-2-yl]methyl]acetamide] | 6.18 |  |
| COC(C)(CNC(=O)CC1CCCCC1)c1cccc(Cl)c1 (stereo not drawn) [Example 19, N-[2-(3-chlorophenyl)-2-methoxy-propyl]-2-cyclohexyl-acetamide] | 6.21 |  |
| O=C(NCC1(c2ccnc(OC(F)F)c2)CCO1)[C@H]1C[C@@H]1C(F)(F)F (stereo partly drawn) [Example 129, (1S,2S)—N-[[2-[2-(difluoromethoxy)-4-pyridyl]oxetan-2-yl]methyl]-2-(trifluoromethyl)cyclopropanecarboxamide] | 5.37 |  |
| O=C(NC[C@]1(c2cccc(Cl)c2)CCO1)[C@H]1C[C@@H]1c1ccccc1 [Example 39, (1S,2S)-N-[[(2R)-2-(3-chlorophenyl)oxetan-2-yl]methyl]-2-phenyl-cyclopropanecarboxamide] | 6.14 |  |
| COC(C)(CNC(=O)C1CC1c1ccc(Cl)cc1)c1cccc(Cl)c1 (stereo not drawn) [Example 44, 2-(4-chlorophenyl)-N-[2-(3-chlorophenyl)-2-methoxy-propyl]cyclopropanecarboxamide] | 6.05 |  |
| COC(C)(CNC(=O)NCc1cccc(C)c1)c1cccc(Cl)c1 (stereo not drawn) [Example 11, 1-[2-(3-chlorophenyl)-2-methoxy-propyl]-3-(m-tolylmethyl)urea] | 5.84 |  |
| COC(C)(CNC(=O)NCc1ccco1)c1cccc(Cl)c1 (stereo not drawn) [Example 9, 1-[2-(3-chlorophenyl)-2-methoxy-propyl]-3-(2-furylmethyl)urea] | 5.61 |  |
| CC#C[C@H]1C[C@@H]1C(=O)NC[C@@]1(c2cccc(C#N)c2)CCO1 (mixture of isomers) [Example 134, (1SR,2SR)—N-[[(2S)-2-(3-cyanophenyl)oxetan-2-yl]methyl]-2-prop-1-ynyl-cyclopropanecarboxamide] | 5.77 |  |
| COC(C)(CNC(=O)NC1CCCC1)c1cccc(Cl)c1 (stereo not drawn) [Example 3, 1-[2-(3-chlorophenyl)-2-methoxy-propyl]-3-cyclopentyl-urea] | 5.63 |  |
| CC(C#N)(CNC(=O)[C@H]1C[C@@H]1c1ccccc1)c1cccc(C(F)(F)F)c1 (mixture of isomers) [Example 31, rac-(1S,2S)-N-[2-cyano-2-[3-(trifluoromethyl)phenyl]propyl]-2-phenyl-cyclopropanecarboxamide] | 5.60 |  |
| N#Cc1cccc([C@]2(CNC(=O)C3CCCC34CCC4)CCO2)c1 (stereo partly drawn) [Example 104, N-[[(2S)-2-(3-cyanophenyl)oxetan-2-yl]methyl]spiro[3.4]octane-8-carboxamide] | 6.29 |  |
| CC#C[C@@H]1C[C@@H]1C(=O)NC[C@@]1(c2cccc(C#N)c2)CCO1 (mixture of isomers) [Example 137, (1SR,2RS)—N-[[(2S)-2-(3-cyanophenyl)oxetan-2-yl]methyl]-2-prop-1-ynyl-cyclopropanecarboxamide] | 5.95 |  |
| N#Cc1cccc([C@]2(CNC(=O)CC3CC4CCC3C4)CCO2)c1 (stereo partly drawn) [Example 108, N-[[(2S)-2-(3-cyanophenyl)oxetan-2-yl]methyl]-2-norbornan-2-yl-acetamide] | 6.39 |  |
| COc1cccc(NC(=O)NCC2(c3cccc(Cl)c3)CCO2)c1 (stereo not drawn) [Example 50, 1-[[2-(3-chlorophenyl)oxetan-2-yl]methyl]-3-(3-methoxyphenyl)urea] | 5.78 |  |
